The results in this text go back to PubChem BioAssay (NCI).

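Growth conditions: 96-well plates. Treatment: test compound, 48 hours, 5 concentrations. Analysis: linear interpolation between bracketing concentrations; unreached endpoints set to highest concentration. Abbreviation: GI50, concentration required for 50% inhibition of growth. At the TGI there is no net growth.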 Bounds are passed on as bounds.

The test system of one assay is RPMI-8226 leukemia. Kind of assay: growth of human tumour cells (NCI), 48 h.
The compound `O=c1nc(N2CCN(c3ccccc3)CC2)ccn1C1OC(CO)C(O)C1O` (stereo not drawn) had a TGI greater than 100 µM.
Same read-out and setting: under `Oc1ccc(/C=C/c2cc(O)cc(O)c2)cc1` stands greater than 100 µM; under `O=C(CN1c2ccccc2Sc2ccccc21)N1CCNCC1`, greater than 100 µM; under `O=C(O)c1c2c(cc3c1CC1(Cc4ccccc4C1)C3)CCC2`, greater than 100 µM.
Still for that read-out and setting: as for `Cc1nc(-c2ccc([N+](=O)[O-])cc2)cn2c1nc1ccccc12`, the figure is greater than 100 µM; as for `CN(C)CCCOC(=O)C(c1ccccc1)C1(O)CCSCC1` (stereo not drawn), greater than 100 µM.
`COCOC1/C=C/CCCCC2=C(C)C=C(C1)O2` (stereo not drawn) displayed a TGI greater than 100 µM.
On to `O=C(O)c1cc2c(cc1CC(Cc1ccc3c(c1)CCC3)C(=O)O)CCC2` (stereo not drawn), for which the TGI was greater than 100 µM.
Still for that read-out and setting: under `COc1cc(-c2cc(=O)c3cc4c(cc3[nH]2)OCO4)cc(OC)c1O` stands greater than 10 µM; under `O=C(Nc1ccc(Br)cc1)c1c(-c2ccccc2)c2ccc(O)cc2oc1=O`, greater than 10 µM; under `O=C1C(Cl)=C(N2CCN(C3=C(Cl)C(=O)c4ccccc4C3=O)CC2)C(=O)c2ccccc21`, 14 µM.
On the same count and under the same terms, as for `CC(C)(N=NC(C)(C)C(=O)NCCO)C(=O)NCCO`, the figure is greater than 100 µM; as for `CCOc1cc(NC(C)=O)ccc1C(=O)NNC(=O)c1ccccc1OC(C)=O`, greater than 28.6 µM.
Same read-out and setting: under `O=C(O)CN(CCNC(=O)OCC1c2ccccc2-c2ccccc21)CCNC(=O)OCC1c2ccccc2-c2ccccc21` stands 76.1 µM.

In a further assay the test system is SN12C renal. Kind of assay: growth of human tumour cells (NCI), 48 h.
Regarding `COCOC1/C=C/CCCC#C[C@H](C)C(=O)CC1` (stereo partly drawn), the TGI was found to be 23.6 µM.
Regarding `CN(C)/N=N/c1nc2c(c(=O)n(C)c(=O)n2C)n1C`, the TGI is greater than 100 µM.
Consider `COc1ccc2[nH]c(O)c(/C=c3/cc4c(c(-c5cc(OC)c(OC)c(OC)c5)n3)=Nc3ccccc3-4)c2c1`, for which the GI50 was 61.2 µM and the TGI is greater than 100 µM.
On to `COc1ccccc1N/C(=C\C(=O)C(=O)NC12CC3CC(CC(C3)C1)C2)c1ccccc1`, for which the TGI is greater than 10 µM.
Same read-out and setting: as for `NCC1CCN(c2nc3ccccc3c3c2CCCC3)CC1`, the figure is 22.4 µM.
Consider `CCN(CC)CCc1c2c(nc3ccccc13)C(=O)c1cccnc1C2=O`, for which the TGI stood at 5.92 µM.
Still for that read-out and setting: under `COc1ccccc1Nc1nc(N)nc(N)c1N=O` stands greater than 100 µM; under `COc1cccc2c(N)c3cccc(C(=O)NCCN(C)C)c3nc12`, 0.488 µM.
The same measure, in the same setting: under `O=C(CCCCCCCCC(=O)NN1C(=O)/C(=C\c2ccc(O)c(O)c2)SC1c1ccc(Cl)cc1)NN1C(=O)/C(=C\c2ccc(O)c(O)c2)SC1c1ccc(Cl)cc1` (stereo not drawn) stands greater than 100 µM; under `CC(C)Sc1nc(C#N)cc2c1CCCC2`, greater than 100 µM; under `CN1C(=O)N(c2ccccc2)C2(CCN(CC3COc4ccccc4O3)CC2)C1=O` (stereo not drawn), greater than 100 µM.
Still for that read-out and setting: under `O=C1/C(=C/c2ccccc2)N=C(c2ccccc2)N1n1c(-c2ccccc2)nc2ccccc2c1=O` stands greater than 100 µM; under `O=c1nc(N2CCN(c3ccccc3)CC2)ccn1C1OC(CO)C(O)C1O` (stereo not drawn), greater than 100 µM.
In the case of `Oc1ccc(/C=C/c2cc(O)cc(O)c2)cc1`, the TGI was greater than 100 µM.
Compound `O=C(CN1c2ccccc2Sc2ccccc21)N1CCNCC1` showed a TGI greater than 100 µM.
The same measure, in the same setting: under `O=C(O)c1c2c(cc3c1CC1(Cc4ccccc4C1)C3)CCC2` stands greater than 100 µM.
For the compound `Cc1nc(-c2ccc([N+](=O)[O-])cc2)cn2c1nc1ccccc12`, the TGI was greater than 100 µM.
The same measure, in the same setting: as for `CN(C)CCCOC(=O)C(c1ccccc1)C1(O)CCSCC1` (stereo not drawn), the figure is greater than 100 µM; as for `COCOC1/C=C/CCCCC2=C(C)C=C(C1)O2` (stereo not drawn), greater than 100 µM.
With `O=C(O)c1cc2c(cc1CC(Cc1ccc3c(c1)CCC3)C(=O)O)CCC2` (stereo not drawn), the TGI was greater than 100 µM.
Same read-out and setting: under `COc1cc(-c2cc(=O)c3cc4c(cc3[nH]2)OCO4)cc(OC)c1O` stands greater than 10 µM.
On the same count and under the same terms, under `O=C(Nc1ccc(Br)cc1)c1c(-c2ccccc2)c2ccc(O)cc2oc1=O` stands greater than 10 µM; under `O=C1C(Cl)=C(N2CCN(C3=C(Cl)C(=O)c4ccccc4C3=O)CC2)C(=O)c2ccccc21`, 3.09 µM.
On the same count and under the same terms, as for `CC(C)(N=NC(C)(C)C(=O)NCCO)C(=O)NCCO`, the figure is greater than 100 µM.
`CCOc1cc(NC(C)=O)ccc1C(=O)NNC(=O)c1ccccc1OC(C)=O` displayed a TGI greater than 91.4 µM.
Still for that read-out and setting: as for `O=C(O)CN(CCNC(=O)OCC1c2ccccc2-c2ccccc21)CCNC(=O)OCC1c2ccccc2-c2ccccc21`, the figure is 80.1 µM.

The next assay concerns NCI-H226 lung. Kind of assay: growth of human tumour cells (NCI), 48 h.
In the case of `COCOC1/C=C/CCCC#C[C@H](C)C(=O)CC1` (stereo partly drawn), the TGI is 35 µM.
Consider `CN(C)/N=N/c1nc2c(c(=O)n(C)c(=O)n2C)n1C`, for which the TGI is greater than 100 µM.
On to `COc1ccc2[nH]c(O)c(/C=c3/cc4c(c(-c5cc(OC)c(OC)c(OC)c5)n3)=Nc3ccccc3-4)c2c1`, for which the GI50 was greater than 100 µM and the TGI is greater than 100 µM.
For the compound `COc1ccccc1N/C(=C\C(=O)C(=O)NC12CC3CC(CC(C3)C1)C2)c1ccccc1`, the TGI is greater than 10 µM.
Still for that read-out and setting: as for `NCC1CCN(c2nc3ccccc3c3c2CCCC3)CC1`, the figure is 34.1 µM.
The same measure, in the same setting: as for `CCN(CC)CCc1c2c(nc3ccccc13)C(=O)c1cccnc1C2=O`, the figure is 18.2 µM; as for `COc1ccccc1Nc1nc(N)nc(N)c1N=O`, greater than 100 µM; as for `COc1cccc2c(N)c3cccc(C(=O)NCCN(C)C)c3nc12`, 0.386 µM.
The same measure, in the same setting: under `O=C(CCCCCCCCC(=O)NN1C(=O)/C(=C\c2ccc(O)c(O)c2)SC1c1ccc(Cl)cc1)NN1C(=O)/C(=C\c2ccc(O)c(O)c2)SC1c1ccc(Cl)cc1` (stereo not drawn) stands greater than 100 µM; under `CC(C)Sc1nc(C#N)cc2c1CCCC2`, greater than 100 µM; under `CN1C(=O)N(c2ccccc2)C2(CCN(CC3COc4ccccc4O3)CC2)C1=O` (stereo not drawn), greater than 100 µM.
With `O=C1/C(=C/c2ccccc2)N=C(c2ccccc2)N1n1c(-c2ccccc2)nc2ccccc2c1=O`, the TGI is greater than 100 µM.
On the same count and under the same terms, under `O=c1nc(N2CCN(c3ccccc3)CC2)ccn1C1OC(CO)C(O)C1O` (stereo not drawn) stands greater than 100 µM.
`Oc1ccc(/C=C/c2cc(O)cc(O)c2)cc1` had a TGI greater than 100 µM.
The compound `O=C(CN1c2ccccc2Sc2ccccc21)N1CCNCC1` yielded a TGI greater than 100 µM.
For the compound `O=C(O)c1c2c(cc3c1CC1(Cc4ccccc4C1)C3)CCC2`, the TGI is greater than 100 µM.
Same read-out and setting: under `Cc1nc(-c2ccc([N+](=O)[O-])cc2)cn2c1nc1ccccc12` stands greater than 100 µM.
Same read-out and setting: as for `CN(C)CCCOC(=O)C(c1ccccc1)C1(O)CCSCC1` (stereo not drawn), the figure is greater than 100 µM.
Compound `COCOC1/C=C/CCCCC2=C(C)C=C(C1)O2` (stereo not drawn) came in with a TGI greater than 100 µM.
The same measure, in the same setting: under `O=C(O)c1cc2c(cc1CC(Cc1ccc3c(c1)CCC3)C(=O)O)CCC2` (stereo not drawn) stands greater than 100 µM; under `COc1cc(-c2cc(=O)c3cc4c(cc3[nH]2)OCO4)cc(OC)c1O`, greater than 10 µM; under `O=C(Nc1ccc(Br)cc1)c1c(-c2ccccc2)c2ccc(O)cc2oc1=O`, greater than 10 µM.
The same measure, in the same setting: as for `O=C1C(Cl)=C(N2CCN(C3=C(Cl)C(=O)c4ccccc4C3=O)CC2)C(=O)c2ccccc21`, the figure is 11.8 µM.
Still for that read-out and setting: as for `CC(C)(N=NC(C)(C)C(=O)NCCO)C(=O)NCCO`, the figure is greater than 100 µM; as for `CCOc1cc(NC(C)=O)ccc1C(=O)NNC(=O)c1ccccc1OC(C)=O`, greater than 59.3 µM; as for `O=C(O)CN(CCNC(=O)OCC1c2ccccc2-c2ccccc21)CCNC(=O)OCC1c2ccccc2-c2ccccc21`, 81.2 µM.
